Patent US8816095B2, “Na channels, disease, and related assays and compositions” (Georgetown University, priority 2008, dated 2014)

Experiments:
[1] = target: T1, human Nav1.2 (Homo sapiens, UniProt Q99250); assay: Sodium channel electrophysiology of hermitamides (patch clamp); format: cell-based; conditions: HEK human Nav1.2
T1 construct: host or cells: HEK
Method: To test whether these compounds were functionally active as sodium channel blockers, the effects of the hermitamides were tested on human embryonic kidney cells (HEK) cells stably expressing human Nav1.2 using the […].
Human embryonic kidney cells (HEK) cells stably expressing human Nav1.2 were a kind gift from Dr. H. A. Hartmann (University of Baltimore, Md., USA) and were grown in DMEM/F12 media (Invitrogen, Corp, CA, USA) supplemented with 10% fetal bovine serum, penicillin (100 U/ml), streptomycin (100 μg/ml) and G418 (500 μg/ml; Sigma, Mo., USA). Cells were grown in a humidified atmosphere of 5% CO2 and 95% air at 37° C.
Sodium currents were recorded using the whole-cell configuration of the patch clamp recording technique with an Axopatch 200 amplifier (Axon Instruments, Foster City, Calif.). All voltage protocols were applied using pCLAMP 9 software (Axon, USA) and a Digidata 1322A (Axon, USA). Currents were amplified and low pass filtered (2 kHz) and sampled at 33 kHz. Borosilicate glass pipettes were pulled using a Brown-Flaming puller (model P87, Sutter Instruments Co, Novato, Calif.) and heat polished to produce electrode resistances of […] when filled with the following electrode solution (in mM); CsCl 130, MgCl2 1, MgATP 5, BAPTA 10, HEPES 5 (pH adjusted to 7.4 with CsOH). Cells were plated on glass coverslips and superfused with solution containing the following composition; (in mM) NaCl 130, KCl 4, CaCl2 1, MgCl2 5, HEPES 5, and glucose 5 (pH adjusted to 7.4 with NaOH).
(S)-Hermitamide B was prepared as 100 mM stock solutions in DMSO and diluted to the desired concentration in perfusion solution. The maximum DMSO concentration used was 0.1% and had no effect on current amplitude. All experiments were performed at room temperature (20-22° C.). After establishing whole-cell, a minimum series resistance compensation of 75% was applied. Sodium currents were elicited by a depolarizing step from a holding potential of −100 mV to +10 mV for a duration of 25 ms at 15 s intervals. (S)-Hermitamide B was applied after a 3 min control period and continued until a steady state current amplitude was observed. All data represent percentage mean block±standard error of the mean (S.E.M.).

[2] = tested on: Na+ channel site 2 binding site; assay: [3H]-BTX assay, rat forebrain membranes; conditions: ± S.E.M., n in brackets
Method: In order to determine if the hermitamides bind to the sodium channel, the natural products, their enantiomers, and the racemic mixture were tested for their ability to displace [^3H]-batrachatoxin. Batrachatoxin is a lipid-soluble neurotoxin that binds to site 2 of the sodium channel. This site is known to overlap with the local anesthetic binding […]. Ligands known to bind to […] of the sodium channel include anesthetics, anticonvulsants and antiarrthymics. As a control, phenyloin, a clinically-used sodium channel blocker that is known to displace [^3H]BTX was also included.
The assays were run at 10 μM and recorded as percent displacement of BTX.
Briefly, rat forebrain membranes (10 mg tissue/well) were incubated with [^3H]-BTX (30-60 Ci/mmol). […] The reaction was terminated by rapid vacuum filtration of the reaction contents onto glass fiber filters. Radioactivity trapped onto the filters was determined and compared with control values to ascertain any interactions of the test compound with the Na^+ channel site 2 binding site. Aconitine (1 μM) was used as a positive control (Sigma Aldrich, Inc., St. Louis, Mo.).

[3] = tested on: CWR22rv-1 cells; assay: CWR22rv-1 prostate cancer cell death (propidium iodide, FACS); format: cell-based, human; conditions: 25 μM, after 24 h
Method: CWR22Rv1 cells (ATCC, Manassas, Va.) were seeded in 6 well tissue culture plate at density of 300,000 cells/well and maintained in RPMI 1640 (Mediatech, Herndon, Va.) containing 10% fetal bovine serum, 2.5 mM L-glutamine, and penicillin-streptomycin (100 IU/ml and 100 μg/ml, respectively) at 37° C. with 5% CO2. Cells were then switched to serum free RPMI media overnight prior to drug treatment. Compounds were dissolved in 100% dimethylsulfoxide (DMSO) and diluted to the desired concentrations in serum free RPMI. Cells were treated with indicated drug concentrations (in triplicate per treatment point) for 24, 48, 72 hour. After treatment, cells were harvested by trypsinization and fixed in 70% ethanol. The fixed cells were then stained with propidium iodide (50 μg/ml) after treatment with RNase (5 μg/ml). The stained cells were analyzed for DNA content using FACSsort (Becton Dickinson). Cell cycle fractions were quantified with Cell Quest (Becton Dickinson) or ModFit LT (Verity Software House).

[4] = tested on: site 2 of the VGSC; assay: [3H]-BTX-B displacement assay at site 2; format: binding, rat; conditions: Screen at 40 μM, 2 replicates, referenced to Aconitine

T1 sequence (Q99250 whole entry): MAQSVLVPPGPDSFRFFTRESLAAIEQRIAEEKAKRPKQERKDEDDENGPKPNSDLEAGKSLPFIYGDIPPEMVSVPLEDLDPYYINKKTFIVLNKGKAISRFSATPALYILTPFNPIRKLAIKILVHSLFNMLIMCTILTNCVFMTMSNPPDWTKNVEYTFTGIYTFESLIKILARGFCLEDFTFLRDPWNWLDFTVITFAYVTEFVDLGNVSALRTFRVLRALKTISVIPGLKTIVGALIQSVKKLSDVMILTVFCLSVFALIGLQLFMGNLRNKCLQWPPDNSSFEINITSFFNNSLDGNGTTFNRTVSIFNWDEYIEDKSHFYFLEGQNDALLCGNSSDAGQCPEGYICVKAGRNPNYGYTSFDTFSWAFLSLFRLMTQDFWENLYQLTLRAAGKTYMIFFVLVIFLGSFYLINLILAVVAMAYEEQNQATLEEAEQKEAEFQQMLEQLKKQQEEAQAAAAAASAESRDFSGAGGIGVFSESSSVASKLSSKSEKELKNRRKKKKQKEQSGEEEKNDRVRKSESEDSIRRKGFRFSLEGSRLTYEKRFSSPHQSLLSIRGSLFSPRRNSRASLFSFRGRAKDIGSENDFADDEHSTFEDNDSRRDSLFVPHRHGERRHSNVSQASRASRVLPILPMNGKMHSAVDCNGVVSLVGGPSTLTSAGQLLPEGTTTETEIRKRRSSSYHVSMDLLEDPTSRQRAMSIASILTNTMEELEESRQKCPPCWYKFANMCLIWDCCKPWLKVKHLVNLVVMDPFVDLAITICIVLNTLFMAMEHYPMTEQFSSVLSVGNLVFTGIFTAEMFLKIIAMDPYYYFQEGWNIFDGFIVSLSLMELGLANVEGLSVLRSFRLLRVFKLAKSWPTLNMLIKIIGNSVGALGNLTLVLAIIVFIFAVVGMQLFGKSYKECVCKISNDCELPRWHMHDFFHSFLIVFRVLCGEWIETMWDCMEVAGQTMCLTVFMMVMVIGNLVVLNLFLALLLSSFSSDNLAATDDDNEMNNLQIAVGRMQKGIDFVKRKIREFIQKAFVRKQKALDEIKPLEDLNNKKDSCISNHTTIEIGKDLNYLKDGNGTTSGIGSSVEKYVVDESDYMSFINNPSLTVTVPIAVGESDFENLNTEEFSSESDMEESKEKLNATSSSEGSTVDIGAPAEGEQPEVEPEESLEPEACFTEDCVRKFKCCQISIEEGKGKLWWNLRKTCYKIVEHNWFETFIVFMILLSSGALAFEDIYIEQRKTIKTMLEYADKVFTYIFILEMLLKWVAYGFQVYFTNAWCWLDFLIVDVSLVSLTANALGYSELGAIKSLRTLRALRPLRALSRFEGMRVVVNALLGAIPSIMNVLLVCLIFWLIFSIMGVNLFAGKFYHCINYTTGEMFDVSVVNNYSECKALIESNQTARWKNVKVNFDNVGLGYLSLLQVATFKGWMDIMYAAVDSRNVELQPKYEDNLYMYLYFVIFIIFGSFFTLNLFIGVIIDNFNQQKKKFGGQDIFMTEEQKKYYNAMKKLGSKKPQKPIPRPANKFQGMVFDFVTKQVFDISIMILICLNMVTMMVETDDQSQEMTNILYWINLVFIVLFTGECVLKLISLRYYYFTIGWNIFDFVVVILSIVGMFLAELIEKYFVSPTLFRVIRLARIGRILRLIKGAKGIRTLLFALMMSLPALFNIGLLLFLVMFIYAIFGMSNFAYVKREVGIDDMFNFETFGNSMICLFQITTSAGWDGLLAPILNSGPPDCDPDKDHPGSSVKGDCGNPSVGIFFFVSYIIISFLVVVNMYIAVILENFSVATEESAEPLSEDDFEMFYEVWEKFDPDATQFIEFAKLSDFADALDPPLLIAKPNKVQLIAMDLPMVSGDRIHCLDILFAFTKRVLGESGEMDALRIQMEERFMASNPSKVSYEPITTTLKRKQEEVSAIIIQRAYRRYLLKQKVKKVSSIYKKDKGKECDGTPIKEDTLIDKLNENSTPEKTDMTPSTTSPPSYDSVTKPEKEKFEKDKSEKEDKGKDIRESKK

SMILES | % [3H]-BTX Displacement At 10 μM [2] | Patch-clamp percentage block, 1 μM [1] | [3H]-BTX-B Binding Data, Displacement % [4] | Patch-clamp percentage block, 10 μM [1] | further results
CCCCCCCC(C/C=C/CCC(=O)O)OC (racemic) [rac-lyngbic acid] | 7.35 ± 2.88 (2) % |  |  |  | Patch-clamp percentage block, 100 μM ([1]; 100 μM): 55.6%
CCCCCCC[C@](O)(C(N)=O)c1cccc(Cl)c1 [(R)-(−)-2-(3-chloro-phenyl)-2-hydroxy-nonanoic acid amide] |  |  |  |  | cell death of CWR22rv-1 cells [3]: induces cell death
CCCCCCC[C@H](C/C=C/CCC(=O)NCCc1ccccc1)OC [(R)-hermitamide A, Phenethyl (7R,4E)-methoxytetradecenamide] | 13.79 ± 1.28 (2) % | 58.7 ± 1.3 (4) % |  |  | 
CCCCCCC[C@H](C/C=C/CCC(=O)O)OC [(R)-lyngbic acid, (7R,4E)-Methoxytetradecenoic Acid] | 11.91 ± 0.16 (2) % | 52.5 ± 3.9 (4) % |  |  | Patch-clamp percentage block, 100 nM [1]: 11.9%
O=C1NC(=O)C(CCCCCC2CC2)(c2cccc(Cl)c2)N1 (stereo not drawn) [Compound 20] |  |  | 8% |  | 
CCCCCCC[C@@H](C/C=C/CCC(=O)NCCc1ccccc1)OC [(S)-hermitamide A, Phenethyl (7S,4E)-methoxytetradecenamide] | 15.89 ± 3.06 (2) % | ~50% |  | 94.4 ± 1.3 (4) % | 
CCCCCCC[C@@H](C/C=C/CCC(=O)NCCc1ccccc1)OC (racemic) [rac-hermitamide A] | 15.71 ± 0.14 (2) % | 49.7 ± 3.8 (4) % |  | 90.2 ± 2.5 (3) % | 
CCCCCCC[C@@H](C/C=C/CCC(=O)NCCc1c[nH]c2ccccc12)OC (racemic) [rac-hermitamide B] | 36.05 ± 0.77 (2) % | 88.4 ± 2.9 (40% |  | 100 (1) % | Patch-clamp percentage block, 100 nM [1]: 24.3%
O=C1NC(=O)C(CCCCCC2CO2)(c2cccc(Cl)c2)N1 (stereo not drawn) [Compound 18] |  |  | 28% |  | 
C=CCCCCCC1(c2cccc(Cl)c2)NC(=O)NC1=O (stereo not drawn) [Compound 16] |  |  | 79% |  | 
C#CC(O)(CCCCCCC)c1cccc(Cl)c1 (stereo not drawn) [Compound 12] |  |  | 78% |  | 
C#C/C(=C\CCCCCC)c1cccc(Cl)c1 [Compound 13] |  |  | 32% |  | 
CCCCCCC[C@@H](C/C=C/CCC(=O)O)OC [(S)-lyngbic acid, (7S,4E)-Methoxytetradecenoic Acid] | 7.77 ± 2.20 (2) % |  |  | 44.4 ± 0.3 (4) % | 
CCCCCCC[C@@H](C/C=C/CCC(=O)NCCc1c[nH]c2ccccc12)OC [(S)-hermitamide B, 2-(1H-indol-3-yl)-ethyl (7S,4E)-Methoxytetradecenamide] | 29.02 ± 0.29 (2) % | 80% |  | 100 (3) % | Patch-clamp percentage block, 1 μM ([1]; listed as Hermitamide B): ~80%
C=CCCCCCC1(c2cccc(Cl)c2)NC(=O)N(Cc2ccccc2)C1=O (stereo not drawn) [Compound 17] |  |  | 23% |  | 
CCCCCCC[C@H](C/C=C/CCC(=O)NCCc1c[nH]c2ccccc12)OC [(R)-hermitamide B, 2-(1H-indol-3-yl)-ethyl (7R,4E)-Methoxytetradecenamide] | 20.31 ± 5.82 (2) % | 93.6 (1) % |  |  | Patch-clamp percentage block, 100 nM [1]: 28.8%
